ChEMBL document CHEMBL1201862, “PubChem BioAssay data set” (2004)
Activity calls are given as the source filed them.

Columns and labels:
Bcl-2-like protein 10 = molecular target: T1, Bcl-2-like protein 10 (Homo sapiens, UniProt Q9HD36); experiment: Biochemical TR3 FP assay of Bcl-B inhibitor potency, EC50 (AID 1243); type: functional
T1 sequence (Q9HD36 whole entry): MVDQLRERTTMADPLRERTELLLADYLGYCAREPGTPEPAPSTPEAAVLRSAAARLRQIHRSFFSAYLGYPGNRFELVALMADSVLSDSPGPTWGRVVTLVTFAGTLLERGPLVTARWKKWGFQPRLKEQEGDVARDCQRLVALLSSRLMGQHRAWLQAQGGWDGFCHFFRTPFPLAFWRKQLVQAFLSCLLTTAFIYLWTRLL

[1] = molecular target: T2, Neuropeptide Y receptor type 1 (Homo sapiens, UniProt P25929); type: functional;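 further: HEK293 cells with a CNG channel challenged with NPY then isoproterenol; potency as antagonist that reverses NPY suppression of cAMP signal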
T2 sequence (P25929 whole entry): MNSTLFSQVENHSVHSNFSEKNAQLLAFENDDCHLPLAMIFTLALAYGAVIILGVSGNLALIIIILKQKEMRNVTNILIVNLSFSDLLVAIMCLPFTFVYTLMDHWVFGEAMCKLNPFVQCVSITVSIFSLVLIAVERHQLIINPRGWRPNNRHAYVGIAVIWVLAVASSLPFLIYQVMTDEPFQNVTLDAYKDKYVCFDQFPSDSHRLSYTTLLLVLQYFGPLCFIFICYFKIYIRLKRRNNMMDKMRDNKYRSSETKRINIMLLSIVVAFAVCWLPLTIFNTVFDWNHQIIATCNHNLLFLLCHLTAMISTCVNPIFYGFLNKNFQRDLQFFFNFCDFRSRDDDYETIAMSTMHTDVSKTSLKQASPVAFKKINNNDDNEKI

[2] = molecular target: T3, Neuropeptide Y receptor type 2 (Homo sapiens, UniProt P49146); type: functional, cell-based;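 further: HEK293 cells expressing the receptor and a CNG channel; stimulus was NPY near EC95 followed by isoproterenol to raise cAMP; antagonist potency measured as restoring cAMP signal that NPY suppresses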
T3 sequence (P49146 whole entry): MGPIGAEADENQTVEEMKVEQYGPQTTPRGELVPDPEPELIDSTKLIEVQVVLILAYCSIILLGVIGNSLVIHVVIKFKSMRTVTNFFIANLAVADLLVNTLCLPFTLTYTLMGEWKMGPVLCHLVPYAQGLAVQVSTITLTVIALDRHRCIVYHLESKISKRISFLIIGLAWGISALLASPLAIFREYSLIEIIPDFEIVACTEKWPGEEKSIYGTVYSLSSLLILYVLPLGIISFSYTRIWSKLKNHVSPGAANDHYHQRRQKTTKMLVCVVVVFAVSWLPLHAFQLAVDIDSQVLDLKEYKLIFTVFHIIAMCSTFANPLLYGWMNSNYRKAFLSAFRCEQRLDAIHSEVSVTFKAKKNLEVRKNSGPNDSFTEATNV

Mucolipin-3 = Mucolipin-3 (Homo sapiens, UniProt Q8TDD5); experiment: Dose response cell-based high-throughput screening assay for agonists of the transient receptor potential channel ML3 (TRPML3). [Related pubchem assays: 1526, 1424, 1448 ]; type: functional
Ion channel NompC = Ion channel NompC (Danio rerio, UniProt Q7T1G6); experiment: Fluorescence counterscreen assay for TRPML3 agonists: dose response cell-based high-throughput screening assay to identify agonists of the transient receptor potential channel N1 (TRPN1). [Related pubchem assays: 1526, 1424, 1448 ]; type: functional
[3] = molecular target: T4, Corticotropin-releasing factor receptor 2/Corticotropin-releasing factor-binding protein (Homo sapiens, UniProt P24387+Q13324); experiment: activators of CRF receptor 2 with binding protein – uHTS hits, confirmation (AID 602473); type: functional; details: read-out: EC50_Mean
T4 sequence (Q13324 whole entry): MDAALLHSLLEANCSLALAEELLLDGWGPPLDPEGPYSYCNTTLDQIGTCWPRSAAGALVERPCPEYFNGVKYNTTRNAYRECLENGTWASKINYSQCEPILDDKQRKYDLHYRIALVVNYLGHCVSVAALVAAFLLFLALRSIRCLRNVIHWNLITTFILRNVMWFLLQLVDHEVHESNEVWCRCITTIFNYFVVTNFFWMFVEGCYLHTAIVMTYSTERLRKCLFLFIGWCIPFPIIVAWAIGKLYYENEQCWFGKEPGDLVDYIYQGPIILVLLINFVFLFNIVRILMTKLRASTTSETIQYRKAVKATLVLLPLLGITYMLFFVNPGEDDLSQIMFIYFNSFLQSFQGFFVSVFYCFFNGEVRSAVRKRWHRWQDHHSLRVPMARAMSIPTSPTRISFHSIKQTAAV
T4 sequence (P24387 whole entry): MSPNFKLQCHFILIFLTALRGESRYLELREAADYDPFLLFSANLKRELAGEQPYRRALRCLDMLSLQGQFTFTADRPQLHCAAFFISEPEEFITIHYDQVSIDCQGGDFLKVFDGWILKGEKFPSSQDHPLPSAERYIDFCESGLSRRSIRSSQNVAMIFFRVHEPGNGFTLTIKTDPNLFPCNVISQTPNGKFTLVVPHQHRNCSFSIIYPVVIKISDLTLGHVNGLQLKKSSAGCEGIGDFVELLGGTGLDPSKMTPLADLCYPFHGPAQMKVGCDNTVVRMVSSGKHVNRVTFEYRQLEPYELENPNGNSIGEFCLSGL

Sequence of Ion channel NompC (Q7T1G6 whole entry): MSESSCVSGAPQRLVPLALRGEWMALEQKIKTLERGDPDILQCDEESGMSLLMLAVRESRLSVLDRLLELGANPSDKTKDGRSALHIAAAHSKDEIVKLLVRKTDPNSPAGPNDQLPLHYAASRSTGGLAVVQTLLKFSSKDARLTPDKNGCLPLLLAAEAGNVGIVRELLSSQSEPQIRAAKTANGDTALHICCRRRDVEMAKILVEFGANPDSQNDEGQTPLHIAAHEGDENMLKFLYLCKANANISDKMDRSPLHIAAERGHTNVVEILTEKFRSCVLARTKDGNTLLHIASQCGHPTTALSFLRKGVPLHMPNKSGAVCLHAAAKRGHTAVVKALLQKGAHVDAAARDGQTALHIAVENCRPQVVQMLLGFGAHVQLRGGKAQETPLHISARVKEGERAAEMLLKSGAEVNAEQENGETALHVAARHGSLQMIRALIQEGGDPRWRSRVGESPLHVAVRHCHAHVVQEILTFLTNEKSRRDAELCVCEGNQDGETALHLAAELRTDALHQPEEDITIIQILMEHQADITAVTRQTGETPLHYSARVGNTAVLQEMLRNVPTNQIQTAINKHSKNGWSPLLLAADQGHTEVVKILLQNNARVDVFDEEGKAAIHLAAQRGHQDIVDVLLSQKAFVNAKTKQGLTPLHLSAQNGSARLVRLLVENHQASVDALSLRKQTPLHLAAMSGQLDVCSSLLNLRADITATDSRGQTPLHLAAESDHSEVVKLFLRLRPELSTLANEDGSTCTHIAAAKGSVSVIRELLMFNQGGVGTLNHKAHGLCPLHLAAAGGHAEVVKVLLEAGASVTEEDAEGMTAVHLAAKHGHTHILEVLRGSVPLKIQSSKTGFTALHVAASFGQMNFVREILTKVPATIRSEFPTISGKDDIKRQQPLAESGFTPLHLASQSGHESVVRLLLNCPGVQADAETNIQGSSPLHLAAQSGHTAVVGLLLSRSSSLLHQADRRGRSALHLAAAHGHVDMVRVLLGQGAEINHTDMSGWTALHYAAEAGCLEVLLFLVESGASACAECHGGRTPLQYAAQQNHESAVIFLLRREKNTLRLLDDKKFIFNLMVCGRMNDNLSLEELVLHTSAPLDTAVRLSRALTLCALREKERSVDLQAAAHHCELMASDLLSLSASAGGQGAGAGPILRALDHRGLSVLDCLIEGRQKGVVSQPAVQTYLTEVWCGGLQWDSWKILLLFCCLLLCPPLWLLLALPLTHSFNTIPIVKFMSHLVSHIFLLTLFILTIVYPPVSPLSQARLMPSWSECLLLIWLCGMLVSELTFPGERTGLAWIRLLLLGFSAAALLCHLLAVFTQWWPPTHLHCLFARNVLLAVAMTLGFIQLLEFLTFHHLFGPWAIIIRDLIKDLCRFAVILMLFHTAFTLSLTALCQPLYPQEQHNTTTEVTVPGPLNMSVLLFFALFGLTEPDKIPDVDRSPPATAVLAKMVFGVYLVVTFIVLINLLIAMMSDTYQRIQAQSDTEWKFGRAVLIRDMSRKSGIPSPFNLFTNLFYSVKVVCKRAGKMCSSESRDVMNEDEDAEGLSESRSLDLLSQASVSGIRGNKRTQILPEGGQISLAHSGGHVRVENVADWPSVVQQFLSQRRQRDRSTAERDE
Sequence of Mucolipin-3 (Q8TDD5 whole entry): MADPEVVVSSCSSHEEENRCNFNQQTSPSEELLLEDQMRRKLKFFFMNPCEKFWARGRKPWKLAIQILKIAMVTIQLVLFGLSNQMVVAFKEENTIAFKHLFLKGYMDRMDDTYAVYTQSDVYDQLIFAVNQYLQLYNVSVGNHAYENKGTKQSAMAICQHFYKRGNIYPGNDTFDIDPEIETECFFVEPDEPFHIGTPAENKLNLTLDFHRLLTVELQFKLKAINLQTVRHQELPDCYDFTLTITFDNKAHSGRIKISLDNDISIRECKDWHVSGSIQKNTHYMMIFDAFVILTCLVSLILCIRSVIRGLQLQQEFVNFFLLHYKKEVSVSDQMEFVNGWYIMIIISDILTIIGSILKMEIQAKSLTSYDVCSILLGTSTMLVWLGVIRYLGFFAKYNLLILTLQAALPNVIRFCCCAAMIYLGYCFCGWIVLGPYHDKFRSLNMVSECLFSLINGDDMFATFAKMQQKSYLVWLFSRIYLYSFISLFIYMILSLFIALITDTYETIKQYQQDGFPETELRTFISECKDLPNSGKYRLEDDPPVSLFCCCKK

## COC(=O)C1=C(C)N(C)C(=O)NC1c1cc2c(cc1[N+](=O)[O-])OCO2 (stereo unspecified)
Bcl-2-like protein 10
  EC50: 17.4 µM (active)

## COc1ccc(-c2nnc3sc(C(C)N4C(=O)c5ccccc5C4=O)nn23)cc1 (stereo unspecified)
[1]
  IC50: 9.35 µM (active)
[2]
  IC50: 6.02 µM (active)

## Cc1cc(C)cc(N2C(=O)CSC2c2cccs2)c1 (stereo unspecified)
Mucolipin-3
  EC50: > 29.9 µM (not active)
Ion channel NompC
  EC50: > 29.9 µM (not active)
[3]
  EC50: > 53 µM (inactive)
